Test results reported in ChEMBL document CHEMBL1125127 (J Med Chem, 1990).

Test system: Canis familiaris
Assay: Percent change in blood pressure (BP) from control at active dose 10-30 mg/kg administered intraperitoneally in anesthetized dogs
Assay type: functional, Canis lupus familiaris
Conditions: not given

SMILES	Change
CC(C)NCC(O)c1ccc(NS(C)(=O)=O)cc1 (stereo not drawn) [SOTALOL]	9%

Test system: Canis familiaris
Assay: Percent change in FRP from control at active dose 10 mg/kg administered intraperitoneally in anesthetized dogs
Assay type: functional, Canis lupus familiaris
Conditions: route intraperitoneal

SMILES	Change
CS(=O)(=O)Nc1ccc(N2CCN(CC(O)COc3cccc4c3CCCC4=O)CC2)cc1 (stereo not drawn)	12%
OC(CNCCOc1ccc(-n2ccnc2)cc1)CONC(C1CC1)C1CC1 (stereo not drawn)	20%

Test system: not listed separately
Assay: Ratio of number of active animals to number of treated at dose 30 mg/kg administered intraperitoneally in anesthetized dogs; No of animals tested=2
Assay type: functional
Conditions: route intraperitoneal

SMILES	Ratio
CS(=O)(=O)Nc1ccc(C(=O)NC2CCCCC2NCC(O)COc2ccccc2)cc1 (stereo not drawn)	2
CS(=O)(=O)Nc1ccc(OCC(O)CNCCNC(=O)c2ccc(-n3ccnc3)cc2)cc1 (stereo not drawn)	1

Test system: Canis familiaris
Assay: Percent change in blood pressure (BP) from control at active dose 30 mg/kg administered intraperitoneally in anesthetized dogs
Assay type: functional, Canis lupus familiaris
Conditions: route intraperitoneal

SMILES	Change
CS(=O)(=O)Nc1ccc(C(=O)NC2CCCCC2NCC(O)COc2ccccc2)cc1 (stereo not drawn)	17%
CS(=O)(=O)Nc1ccc(N2CCN(CC(O)COc3ccccc3)CC2)cc1 (stereo not drawn)	-17%
CS(=O)(=O)Nc1ccc(OCC(O)CNCCNC(=O)c2ccc(-n3ccnc3)cc2)cc1 (stereo not drawn)	30%

Test system: Canis familiaris
Assay: Percent change in heart rate (HR) from control at active dose 30 mg/kg administered intraduodenally
Conditions: route intraduodenal

SMILES	Change
CS(=O)(=O)Nc1ccc(C(=O)NC2CCCCC2NCC(O)COc2ccccc2)cc1 (stereo not drawn)	-19%
CS(=O)(=O)Nc1ccc(N2CCN(CC(O)COc3ccccc3)CC2)cc1 (stereo not drawn)	-7%
CS(=O)(=O)Nc1ccc(OCC(O)CNCCNC(=O)c2ccc(-n3ccnc3)cc2)cc1 (stereo not drawn)	-18%

Test system: Canis familiaris
Assay: Concentration at which maximum change in […] was observed from control value in anesthetized dogs; The maximum observed change APD95 from control value and concentration at 1 uM when this occurred
Assay type: functional, Canis lupus familiaris
Conditions: not given

SMILES	Max delta
CS(=O)(=O)Nc1ccc(N2CCN(CC(O)COc3ccccc3)CC2)cc1 (stereo not drawn)	52%

Test system: Canis familiaris
Assay: Percent change in heart rate (HR) from control at active dose 0.3-10 mg/kg administered intraperitoneally in anesthetized dogs
Assay type: functional, Canis lupus familiaris
Conditions: not given

SMILES	Change
CC(C)NCC(O)c1ccc(NS(C)(=O)=O)cc1 (stereo not drawn) [SOTALOL]	-6%

Target: Adrenergic receptor beta (Canis lupus familiaris)
Assay: Tested for beta-receptor binding inhibition from canine ventricular tissue, using [3H]dihydroalprenolol as the radioligand in anesthetized dogs
Conditions: not given

SMILES	IC50
OC(CNCCOc1ccc(-n2ccnc2)cc1)CONC(C1CC1)C1CC1 (stereo not drawn)	0.3 µM
COc1ccccc1C(O)CNCCOc1ccc(-n2ccnc2)cc1 (stereo not drawn)	3.7 µM

Test system: Canis familiaris
Assay: Concentration that causes a 20% increase in APD95 (action potential duration at 95% repolarization) from control value in anesthetized dogs
Assay type: functional, Canis lupus familiaris
Conditions: not given

SMILES	C20	C20 APD95
CS(=O)(=O)Nc1ccc(C(=O)NC2CCCCC2NCC(O)COc2ccccc2)cc1 (stereo not drawn)	5.3 µM	–
CCN(CC)CCNC(=O)c1ccc(NS(C)(=O)=O)cc1 [SEMATILIDE]	4.4 µM	–
CS(=O)(=O)Nc1ccc(N2CCN(CC(O)COc3ccccc3)CC2)cc1 (stereo not drawn)	2.7 µM	–
CS(=O)(=O)Nc1ccc(OCC(O)CNCCNC(=O)c2ccc(-n3ccnc3)cc2)cc1 (stereo not drawn)	5.8 µM	–
CS(=O)(=O)Nc1ccc(C(=O)NCCNCC(O)COc2ccccc2C#N)cc1 (stereo not drawn)	23.7 µM	–
CS(=O)(=O)Nc1ccc(N2CCN(CC(O)COc3cccc4c3CCCC4=O)CC2)cc1 (stereo not drawn)	1.9 µM	–
COCCc1ccc(OCC(O)CNCCNC(=O)c2ccc(-n3ccnc3)cc2)cc1 (stereo not drawn)	<1.4 µM	–
OC(CNCCOc1ccc(-n2ccnc2)cc1)CONC(C1CC1)C1CC1 (stereo not drawn)	–	1.5 µM
CS(=O)(=O)Nc1ccc(C(=O)N2CCN(CC(O)COc3ccccc3)CC2)cc1 (stereo not drawn)	<1 µM	–
CC(=O)Nc1ccc(OCC(O)CN2CCN(c3ccc(NS(C)(=O)=O)cc3)CC2)cc1 (stereo not drawn)	42 µM	–
COCCc1ccc(OCC(O)CN2CCN(C(=O)c3ccc(NS(C)(=O)=O)cc3)CC2)cc1 (stereo not drawn)	7.7 µM	–
COc1ccccc1C(O)CNCCOc1ccc(-n2ccnc2)cc1 (stereo not drawn)	–	10.4 µM
CC(C)NCC(O)c1ccc(NS(C)(=O)=O)cc1 (stereo not drawn) [SOTALOL]	14.4 µM	–

Target: Beta adrenergic receptor (Canis familiaris)
Assay: not given
Conditions: not given

SMILES	IC50
CS(=O)(=O)Nc1ccc(C(=O)NC2CCCCC2NCC(O)COc2ccccc2)cc1 (stereo not drawn)	192 µM
CS(=O)(=O)Nc1ccc(N2CCN(CC(O)COc3ccccc3)CC2)cc1 (stereo not drawn)	15.8 µM
CS(=O)(=O)Nc1ccc(OCC(O)CNCCNC(=O)c2ccc(-n3ccnc3)cc2)cc1 (stereo not drawn)	227 µM
CS(=O)(=O)Nc1ccc(C(=O)NCCNCC(O)COc2ccccc2C#N)cc1 (stereo not drawn)	2.9 µM
CS(=O)(=O)Nc1ccc(N2CCN(CC(O)COc3cccc4c3CCCC4=O)CC2)cc1 (stereo not drawn)	8.4 µM
COCCc1ccc(OCC(O)CNCCNC(=O)c2ccc(-n3ccnc3)cc2)cc1 (stereo not drawn)	12.4 µM
CS(=O)(=O)Nc1ccc(C(=O)N2CCN(CC(O)COc3ccccc3)CC2)cc1 (stereo not drawn)	12.2 µM
CC(=O)Nc1ccc(OCC(O)CN2CCN(c3ccc(NS(C)(=O)=O)cc3)CC2)cc1 (stereo not drawn)	293 µM
COCCc1ccc(OCC(O)CN2CCN(C(=O)c3ccc(NS(C)(=O)=O)cc3)CC2)cc1 (stereo not drawn)	360 µM

Test system: Canis familiaris
Assay: Percent change in heart rate (HR) from control at active dose 1.0-10 mg/kg administered intravenously in conscious dogs
Conditions: not given

SMILES	Change
OC(CNCCOc1ccc(-n2ccnc2)cc1)CONC(C1CC1)C1CC1 (stereo not drawn)	-13%

Test system: Canis familiaris
Assay: Percent change in blood pressure (BP) from control at active dose 0.3-10 mg/kg administered intraperitoneally in anesthetized dogs
Assay type: functional, Canis lupus familiaris
Conditions: not given

SMILES	Change
CC(C)NCC(O)c1ccc(NS(C)(=O)=O)cc1 (stereo not drawn) [SOTALOL]	8%

Test system: not listed separately
Assay: Ratio of number of active animals to number of treated at dose 1.0 mg/kg administered intraperitoneally in Epinephrine-induced model in anesthetized dogs; 4/4
Assay type: functional
Conditions: route intraperitoneal

SMILES	No. of active/no. of tested
CC(C)NCC(O)c1ccc(NS(C)(=O)=O)cc1 (stereo not drawn) [SOTALOL]	4

Test system: Canis familiaris
Assay: Percent change in blood pressure (BP) from control at active dose 1.0-10 mg/kg administered intraperitoneally in anesthetized dogs
Assay type: functional, Canis lupus familiaris
Conditions: not given

SMILES	Change
OC(CNCCOc1ccc(-n2ccnc2)cc1)CONC(C1CC1)C1CC1 (stereo not drawn)	-5%

Test system: Canis familiaris
Assay: Maximum change in […] from control value in anesthetized dogs; 10 uM.
Assay type: functional, Canis lupus familiaris
Conditions: not given

SMILES	Max delta
CS(=O)(=O)Nc1ccc(C(=O)NC2CCCCC2NCC(O)COc2ccccc2)cc1 (stereo not drawn)	45%
COCCc1ccc(OCC(O)CNCCNC(=O)c2ccc(-n3ccnc3)cc2)cc1 (stereo not drawn)	70%
OC(CNCCOc1ccc(-n2ccnc2)cc1)CONC(C1CC1)C1CC1 (stereo not drawn)	87%
CS(=O)(=O)Nc1ccc(C(=O)N2CCN(CC(O)COc3ccccc3)CC2)cc1 (stereo not drawn)	88%
COCCc1ccc(OCC(O)CN2CCN(C(=O)c3ccc(NS(C)(=O)=O)cc3)CC2)cc1 (stereo not drawn)	56%

Test system: Canis familiaris
Assay: Concentration at which maximum change in […] was observed from control value in anesthetized dogs; The maximum observed change APD95 from control value and concentration at 30 uM when this occurred
Assay type: functional, Canis lupus familiaris
Conditions: not given

SMILES	Max delta
CS(=O)(=O)Nc1ccc(OC[C@H](O)CNCCOc2ccc(-n3ccnc3)cc2)cc1	73%
CS(=O)(=O)Nc1ccc(C(=O)NCCNCC(O)COc2ccccc2C#N)cc1 (stereo not drawn)	31%
COc1ccccc1C(O)CNCCOc1ccc(-n2ccnc2)cc1 (stereo not drawn)	33%

Test system: not listed separately
Assay: Ratio of number of active animals to number of treated at dose 10 mg/kg administered intraperitoneally in anesthetized dogs; No of animals tested=2
Assay type: functional
Conditions: route intraperitoneal

SMILES	Ratio
CS(=O)(=O)Nc1ccc(N2CCN(CC(O)COc3cccc4c3CCCC4=O)CC2)cc1 (stereo not drawn)	1

Test system: Canis familiaris
Assay: Percent change in FRP from control at active dose 0.3-10 mg/kg administered intraperitoneally
Assay type: functional, Canis lupus familiaris
Conditions: not given

SMILES	Change
CC(C)NCC(O)c1ccc(NS(C)(=O)=O)cc1 (stereo not drawn) [SOTALOL]	14%

Test system: Canis familiaris
Assay: Concentration at which maximum change in […] was observed from control value in anesthetized dogs; The maximum observed change APD95 from control value and concentration at 100 uM when this occurred
Assay type: functional, Canis lupus familiaris
Conditions: not given

SMILES	Max delta
CCN(CC)CCNC(=O)c1ccc(NS(C)(=O)=O)cc1 [SEMATILIDE]	65%
CS(=O)(=O)Nc1ccc(OCC(O)CNCCNC(=O)c2ccc(-n3ccnc3)cc2)cc1 (stereo not drawn)	58%
CC(=O)Nc1ccc(OCC(O)CN2CCN(c3ccc(NS(C)(=O)=O)cc3)CC2)cc1 (stereo not drawn)	39%
CC(C)NCC(O)c1ccc(NS(C)(=O)=O)cc1 (stereo not drawn) [SOTALOL]	48%

Test system: Canis familiaris
Assay: Percent change in FRP from control at active dose 30 mg/kg administered intraperitoneally in anesthetized dogs
Assay type: functional, Canis lupus familiaris
Conditions: route intraperitoneal

SMILES	Change
CS(=O)(=O)Nc1ccc(C(=O)NC2CCCCC2NCC(O)COc2ccccc2)cc1 (stereo not drawn)	15%
CS(=O)(=O)Nc1ccc(N2CCN(CC(O)COc3ccccc3)CC2)cc1 (stereo not drawn)	14%
CS(=O)(=O)Nc1ccc(OCC(O)CNCCNC(=O)c2ccc(-n3ccnc3)cc2)cc1 (stereo not drawn)	14%

Test system: Canis familiaris
Assay: Percent change in heart rate (HR) from control at active dose 10 mg/kg administered intraduodenally
Conditions: route intraduodenal

SMILES	Change
CS(=O)(=O)Nc1ccc(N2CCN(CC(O)COc3cccc4c3CCCC4=O)CC2)cc1 (stereo not drawn)	-1%
OC(CNCCOc1ccc(-n2ccnc2)cc1)CONC(C1CC1)C1CC1 (stereo not drawn)	-18%

Test system: not listed separately
Assay: Ratio of number of active animals to number of treated at dose 3.0 mg/kg administered intraperitoneally in Epinephrine-induced model in anesthetized dogs; 6/6
Conditions: route intraperitoneal

SMILES	No. of active/no. of tested
CC(C)NCC(O)c1ccc(NS(C)(=O)=O)cc1 (stereo not drawn) [SOTALOL]	6

Test system: Canis familiaris
Assay: Percent change in FRP from control at active dose 10-30 mg/kg administered intraperitoneally in anesthetized dogs
Assay type: functional, Canis lupus familiaris
Conditions: not given

SMILES	Change
CC(C)NCC(O)c1ccc(NS(C)(=O)=O)cc1 (stereo not drawn) [SOTALOL]	17%

Test system: Canis familiaris
Assay: Percent change in FRP from control at active dose 1.0-10 mg/kg administered intravenously
Conditions: not given

SMILES	Change
OC(CNCCOc1ccc(-n2ccnc2)cc1)CONC(C1CC1)C1CC1 (stereo not drawn)	3%

Test system: Canis familiaris
Assay: Percent change in heart rate (HR) from control at active dose 10-30 mg/kg administered intraperitoneally
Assay type: functional, Canis lupus familiaris
Conditions: not given

SMILES	Change
CC(C)NCC(O)c1ccc(NS(C)(=O)=O)cc1 (stereo not drawn) [SOTALOL]	-10%

Test system: not listed separately
Assay: Ratio of number of active animals to number of treated at dose 30 mg/kg administered intraperitoneally in anesthetized dogs; No of animals tested=4
Conditions: route intraperitoneal

SMILES	Ratio
CS(=O)(=O)Nc1ccc(N2CCN(CC(O)COc3ccccc3)CC2)cc1 (stereo not drawn)	1

Test system: Canis familiaris
Assay: Concentration at which maximum change in […] was observed from control value in anesthetized dogs; The maximum observed change APD95 from control value and concentration at 10 uM when this occurred
Assay type: functional, Canis lupus familiaris
Conditions: not given

SMILES	Max delta
CS(=O)(=O)Nc1ccc(N2CCN(CC(O)COc3cccc4c3CCCC4=O)CC2)cc1 (stereo not drawn)	48%

Test system: Canis familiaris
Assay: Percent change in blood pressure (BP) from control at active dose 10 mg/kg administered intraperitoneally in anesthetized dogs
Assay type: functional, Canis lupus familiaris
Conditions: route intraperitoneal

SMILES	Change
CS(=O)(=O)Nc1ccc(N2CCN(CC(O)COc3cccc4c3CCCC4=O)CC2)cc1 (stereo not drawn)	18%
OC(CNCCOc1ccc(-n2ccnc2)cc1)CONC(C1CC1)C1CC1 (stereo not drawn)	2%
